Source: patent publication US12624057B2, “Bisphosphonate quinolone conjugates and uses thereof” (BIOVINC, LLC, priority 2016, dated 2026)

Tests used:
[1] = test system: biofilms of S. aureus strain ATCC-6538; experiment: Preformed biofilms on polystyrene, S. aureus; format: cell-based, Staphylococcus aureus
Description: Antimicrobial susceptibility testing of BP-ciprofloxacin against preformed biofilms of S. aureus strain ATCC-6538 and P. aeruginosa strain ATCC-15442: Strains cultured on appropriate agar plates (Columbia agar plate for S. aureus; MacConkey agar plate for P. aeruginosa) were transferred to liquid microbiological media and incubated for 24 h/37° C. under aerobic conditions. After incubation, strains were diluted to the density of 1 MF. The microbial dilutions were introduced to wells of 24-well plates containing HA discs as a substrate, or simply to polystyrene wells where the bottom surface of the wells served as the substrate for biofilm development. Strains were incubated at 37° C. for 4 hrs. Next, the microbe-containing solutions were removed from the wells. The surfaces, HA discs and polystyrene plates, were gently rinsed to leave adhered cells and to remove planktonic or loosely-bound microbes. Surfaces prepared in this manner were immersed in fresh TSB medium containing 0.24-125 mg/L of BP-ciprofloxacin conjugate. After 24 hrs of incubation at 37° C. the surfaces were rinsed using physiological saline solution and transferred to 1 mL of 0.5% saponin (Sigma-Aldrich, St Louis, MO). The surfaces were vortex-mixed vigorously for 1 minute to detach cells. Subsequently, all microbial suspensions were diluted 10 to 10^9 times. Each dilution ([…]) was cultured on the appropriate stable medium (MacConkey, Columbia for P. aeruginosa and S. aureus, respectively) and incubated at 37-C for 24 hours. After this time, the microbial colonies were counted and the number of cells forming biofilm was assessed. […]
Antimicrobial susceptibility testing of 6 against preformed biofilms of S. aureus strain ATCC-6538 and P. aeruginosa strain ATCC-15442: Strains cultured on appropriate agar plates (Columbia agar plate for S. aureus; MacConkey agar plate for P. aeruginosa) were transferred to liquid microbiological media and incubated for 24 hrs/37° C. under aerobic conditions. […] After this time, the microbial colonies were counted and the number of cells forming biofilm was assessed. […]

[2] = test system: planktonic S. aureus clinical osteomyelitis strains (MSSA and MRSA); experiment: MIC by microdilution against planktonic clinical S. aureus strains; format: cell-based, Staphylococcus aureus; details: for antimicrobial activity / MIC against planktonic S. aureus (in words): microdilution, 24 h
Description: (§1) Subsequently, the plate was incubated for 24 h/37° C. in a shaker to obtain optimal conditions for microbial growth and to prevent bacteria from forming biofilms. After incubation, the absorbance was measured once again. The following control samples were established: negative control sample one: sterile medium without microbes; negative control sample two: sterile medium without microbes implemented with DMSO (dimethyl sulfoxide, Sigma-Aldritch) to final concentration of 1% (v/v); positive control sample one: medium+microbes with no compound tested; positive control sample two: medium+microbes with no compound tested but implemented with DMSO to final concentration of 1% (v/v). […] To assess relative number of cells, the following calculations were performed. […] Next, the relative number of cells subjected to incubation with tested compounds were counted as follows: […].
as §1, with “Evaluation of the MIC of tested compounds against planktonic forms of clinical staphylococcal strains analyzed: To assess the impact of parent antibiotic and conjugates on microbial growth, 100 μl of microbial solutions of density 1×10^5 CFU/ml were placed into wells of 96-well test plates together with appropriate concentrations of tested compounds. […] Subsequently,” for “Subsequently,”, “plates were” for “the plate was”, “hrs/37°” for “h/37°”, “Sigma-Aldrich)” for “Sigma-Aldritch)”
The occurrence of opacification or lack of opacification of media was proof of pathogen growth or lack of growth, respectively. Additionally, bacterial solutions were cultured on the appropriate stable medium. Growth or lack of growth of bacterial colonies together with above-mentioned results from liquid cultures served as confirmation of results obtained spectrophotometrically.

Compound: O=C(O)c1cn(C2CC2)c2cc(N3CCN(C(=O)Oc4ccc(CC(P(=O)(O)O)P(=O)(O)O)cc4)CC3)c(F)cc2c1=O [Compound 6, 1-cyclopropyl-7-(4-((4-(2,2-diphosphonoethyl)phenoxy)carbonyl)piperazin-1-yl)-6-fluoro-4-oxo-1,4-dihydroquinoline-3-carboxylic acid]
- minimal biofilm inhibitory concentration (MBIC50) ([1]; polystyrene substrate (Example 1)): 15.6 to 31.2 µg/mL
- minimal biofilm inhibitory concentration (MBIC50) ([1]; polystyrene substrate (Example 5)): 15.6 to 31.2 µg/mL
- MBIC90 ([1]; polystyrene substrate, tested range of concentrations): no MBIC90 was observed for either pathogen
- MIC compared with mean bactericidal concentration (MBC) ([2]; AST data): equivalent to their mean bactericidal concentrations
- antimicrobial activity / MIC against planktonic S. aureus (in words) [2]: effective bactericidal activity
- antimicrobial activity / MIC against planktonic S. aureus (in words) ([2]; listed as BCC): retains significant bactericidal activity
- antimicrobial activity / MIC against planktonic S. aureus (in words) ([2]; listed as BP-ciprofloxacin): slightly greater concentrations of conjugate required to reach MIC than ciprofloxacin alone
